This note sets out measurements from PubChem BioAssay AID2005 (Sanford-Burnham Center for Chemical Genomics, 2009).

The source made the active and inactive calls.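 The calls were made as follows: active = plate Z score at or below -3, or inhibition of at least 30% at 20 µM; inactive = the rest.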

A short description of this experiment: EGFP reporter destabilization counter-screen – F442A EGFP cells, fluorescence, counter-screen for p/CIP destabilizer project, dose response (AID 2005).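 Also: cells express EGFP alone from a CMV promoter as a counter screen for p/CIP-EGFP.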 The note with it: F442A EGFP cells, EGFP fluorescence, 16 h, stronger effect = higher value.

For the molecule `O=C(NC(=S)NCCc1ccccc1)c1ccco1`, the inhibition (in general, the change of the read-out against control, counted positive when it falls) (EGFP decrease, at 10 µM) was found to be 9.7% and the inhibition (at 20 µM) was -5.7% (inactive).

As for `NC(=O)COC(=O)CSc1cccc2cccc(Cl)c12`, the inhibition is, setting by setting: (EGFP decrease, at 10 µM) 24%; (at 20 µM) 10.6% (inactive).

Regarding `O=C(Nc1nc(-c2ccccc2)cs1)C1CCCCN1S(=O)(=O)c1ccccc1` (stereo not drawn), the inhibition is 15% (EGFP decrease, at 10 µM) and 8.6% (inactive) (at 20 µM).

`Cc1onc(-c2ccccc2)c1C(=O)OCC(=O)Nc1cc(S(=O)(=O)N2CCOCC2)ccc1Cl`: the inhibition was 13.9% (EGFP decrease, at 10 µM) and 19.6% (inactive) (at 20 µM).

Turning to `Cc1ccc(NC2CCCN(C(=O)c3ccccc3-c3ncc[nH]3)C2)cc1C` (stereo not drawn), the inhibition is, setting by setting: (EGFP decrease, at 10 µM) -12.3%; (at 20 µM) 21.4% (inactive).

For the molecule `CC(C(=O)NC1=NCCS1)N1C(=O)C2CC=CCC2C1=O` (stereo not drawn), the inhibition (EGFP decrease, at 10 µM) was 20.2% and the inhibition (at 20 µM) is 27.7% (inactive).

On to `Cc1ccc(S(=O)(=O)Nc2cc(C(C)C)c(O)cc2C)cc1`, for which the inhibition is -16.2% (EGFP decrease, at 10 µM) and -4.5% (inactive) (at 20 µM).

As to `CC(NC(=O)c1c(F)cccc1Cl)c1ccc(-n2ccnc2)cc1` (stereo not drawn), the inhibition (EGFP decrease, at 10 µM) came out at 35.7% and the inhibition (at 20 µM) is 24.4% (inactive).

Take `CCOC(=O)C1=C(N)Oc2cc(C)oc(=O)c2C12C(=O)N1c3c(cc(OC)cc32)C(C)=CC1(C)C` (stereo not drawn): the inhibition is -0.3% (EGFP decrease, at 10 µM) and 5.1% (inactive) (at 20 µM).

As to `CCc1ccc(NC(=O)CCn2c(=O)oc3ccccc32)cc1`, the inhibition is, setting by setting: (EGFP decrease, at 10 µM) 11.9%; (at 20 µM) 3.3% (inactive).

As for `O=S(=O)(NCC1CCCO1)c1cccc(C(F)(F)F)c1` (stereo not drawn), the inhibition (EGFP decrease, at 10 µM) stood at 7.7% and the inhibition (at 20 µM) is 11.7% (inactive).

For the molecule `Cc1ccc(CN(Cc2ccccc2)C(=S)NCC(=O)NCc2cccnc2)o1`, the inhibition was 5.8% (EGFP decrease, at 10 µM) and 6.9% (inactive) (at 20 µM).

Consider `CC(=O)Nc1ccc(S(=O)(=O)NCc2cn3ccsc3n2)cc1`, for which the inhibition was 8.3% (EGFP decrease, at 10 µM) and 1% (inactive) (at 20 µM).

Turning to `CC(Oc1ccc(Cl)cc1)C(=O)NCC1CCCO1` (stereo not drawn), the inhibition reads like this: (EGFP decrease, at 10 µM) 20.8%; (at 20 µM) -7.4% (inactive).

In the case of `Cc1nc2c(=O)n(C)c(=O)nc-2n(C)n1`, the inhibition was 54.2% (EGFP decrease, at 10 µM) and 34.4% (at 20 µM).

`C=CCn1c(SCCN2C(=O)c3ccccc3C2=O)nc2scc(-c3ccccc3)c2c1=O`: the inhibition runs as follows: (EGFP decrease, at 10 µM) 30.3%; (at 20 µM) 0.6% (inactive).

As to `COc1ccc(S(=O)(=O)N2c3ccccc3OCC2c2ccccc2)cc1` (stereo not drawn), the inhibition was -12.8% (EGFP decrease, at 10 µM) and 1.8% (inactive) (at 20 µM).

Take `CC(=O)N1c2c(cc(Br)cc2S(=O)(=O)NCc2ccccc2)CC1C` (stereo not drawn): the inhibition (EGFP decrease, at 10 µM) came to 26.4% and the inhibition (at 20 µM) is 20.8% (inactive).

Turning to `Cc1ccc(/C=C/C(=O)c2ccc(N3CCOCC3)cc2)s1`, the inhibition is 8.3% (EGFP decrease, at 10 µM) and -1.4% (inactive) (at 20 µM).

Take `CC(C)=CC(=O)Nc1ccccc1Br`: the inhibition was 26.1% (EGFP decrease, at 10 µM) and 12.9% (inactive) (at 20 µM).

Consider `CSCCC(CO)NC(=O)OCc1ccccc1` (stereo not drawn), for which the inhibition (EGFP decrease, at 10 µM) came to 10.8% and the inhibition (at 20 µM) is -23.3% (inactive).

As to `Cn1c(O)c(C=NC2CCCCCC2)c(=O)[nH]c1=S`, the inhibition by setting is: (EGFP decrease, at 10 µM) 0.3%; (at 20 µM) 7.6% (inactive).

Consider `CCc1cc2c(NCCC(=O)O)nc(C)nc2s1`, for which the inhibition by setting is: (EGFP decrease, at 10 µM) 20.9%; (at 20 µM) 21% (inactive).

For `CN=Cc1sc2ccccc2c1O`, the inhibition (EGFP decrease, at 10 µM) came to 26.9% and the inhibition (at 20 µM) is 29.7% (inactive).

On to `CC(C)C(=O)Nc1nnc(SCC(=O)NCc2cccs2)s1`, for which the inhibition reads like this: (EGFP decrease, at 10 µM) 11.1%; (at 20 µM) 12% (inactive).

On to `CC(O)CNc1nc2c(c(=O)n(C)c(=O)n2C)n1Cc1cccc(Br)c1` (stereo not drawn), for which the inhibition by setting is: (EGFP decrease, at 10 µM) 24.8%; (at 20 µM) 12.7% (inactive).

Consider `Cc1sc2nc(COC(=O)c3ccc(N4CCCC(C)C4)c([N+](=O)[O-])c3)[nH]c(=O)c2c1C` (stereo not drawn), for which the inhibition is 26.5% (EGFP decrease, at 10 µM) and 11.2% (inactive) (at 20 µM).

As to `CCOc1ccc(NC(=O)/C(=C\c2ccc(OC(C)=O)c(OC)c2)NC(C)=O)cc1`, the inhibition (EGFP decrease, at 10 µM) is 1.3% and the inhibition (at 20 µM) was -16.6% (inactive).

For `Cc1ccccc1CC(=O)Nc1sc(C(C)C)cc1C(=O)N1CCOCC1`, the inhibition reads like this: (EGFP decrease, at 10 µM) 4.2%; (at 20 µM) 14.3% (inactive).

`C/C(N)=C(/C#N)C(=O)CSc1nnnn1-c1ccc(C)cc1C`: the inhibition is 18% (EGFP decrease, at 10 µM) and 3.2% (inactive) (at 20 µM).

Consider `CN1CCn2c1nc(N1CCCCC1)nc2=O`, for which the inhibition by setting is: (EGFP decrease, at 10 µM) 14.7%; (at 20 µM) 16.5% (inactive).

With `O=C(NCCc1cccc(F)c1)C1CCCN(c2nc3ccccc3s2)C1` (stereo not drawn), the inhibition was 16.8% (EGFP decrease, at 10 µM) and 0.4% (inactive) (at 20 µM).

As for `Cc1ccc(S(=O)(=O)Nc2cccc(-c3cn4ccsc4n3)c2)cc1`, the inhibition was 31% (EGFP decrease, at 10 µM) and 10.2% (inactive) (at 20 µM).

Turning to `COc1cccc2[nH]c(C(=O)NCCc3ccccc3)cc12`, the inhibition by setting is: (EGFP decrease, at 10 µM) 4.4%; (at 20 µM) 17.4% (inactive).

Take `Cc1ccc(N2C(=O)N(CC(=O)Nc3ccc(C)cc3C)C(=O)C2C)cc1` (stereo not drawn): the inhibition by setting is: (EGFP decrease, at 10 µM) 28.1%; (at 20 µM) 22% (inactive).

`O=C(CSc1nnc(-c2ccccc2F)o1)OCc1ccccc1`: the inhibition is, setting by setting: (EGFP decrease, at 10 µM) 15.7%; (at 20 µM) 39%.

Regarding `S=c1[nH]nc(COc2ccccc2)n1/N=C/c1ccc(Cl)cc1Cl`, the inhibition is 13.4% (EGFP decrease, at 10 µM) and 9.7% (inactive) (at 20 µM).

For the molecule `Cc1ccc(OCC(=O)N2CCN(C(=O)c3ccco3)CC2)cc1`, the inhibition (EGFP decrease, at 10 µM) was 23.1% and the inhibition (at 20 µM) is 8.2% (inactive).

Take `Cn1ncnc2c(=O)n(C)c(=O)nc1-2`: the inhibition is 49.3% (EGFP decrease, at 10 µM) and 61.7% (at 20 µM).

In the case of `CS(=O)(=O)N(CC(=O)N1CCN(Cc2ccc3c(c2)OCO3)CC1)c1ccc2c(c1)OCO2`, the inhibition (EGFP decrease, at 10 µM) amounted to 15.1% and the inhibition (at 20 µM) was -15.1% (inactive).

`O=C1c2ccccc2C(=O)C1c1ccc2ccccc2n1`: the inhibition is 1.9% (EGFP decrease, at 10 µM) and -11.6% (inactive) (at 20 µM).

Regarding `CCc1cccc(C)c1NC(=O)CCNC(=O)c1cccc(C)c1`, the inhibition reads like this: (EGFP decrease, at 10 µM) 12.2%; (at 20 µM) 12.9% (inactive).

In the case of `CC1CCCCC1NC(=O)c1cn(C)c2ccc(S(=O)(=O)N3CCCC3)cc2c1=O` (stereo not drawn), the inhibition (EGFP decrease, at 10 µM) was determined as 12.3% and the inhibition (at 20 µM) is 6.4% (inactive).

Take `CCc1c(C)nc(SCC(=O)Nc2cccc(Br)c2)[nH]c1=O`: the inhibition (EGFP decrease, at 10 µM) is 35.5% and the inhibition (at 20 µM) is 12.1% (inactive).

For the molecule `CCn1c(SCC(=O)Nc2nc3ccc(C)cc3s2)nc2c(c1=O)SC(C)C2` (stereo not drawn), the inhibition is, setting by setting: (EGFP decrease, at 10 µM) 36.6%; (at 20 µM) 44.7%.

Take `COc1cc(OC)cc(C(=O)NCC(=O)OCC(=O)N2CCc3ccccc32)c1`: the inhibition is 8.9% (EGFP decrease, at 10 µM) and 20.7% (inactive) (at 20 µM).

Turning to `CC1(C)C(=O)Nc2ccccc2N1C(=O)COc1ncnc2c(Cl)cc(Cl)cc12`, the inhibition (EGFP decrease, at 10 µM) is 18.4% and the inhibition (at 20 µM) was 17.9% (inactive).

As for `C[C@@H](C(=O)N1CCN(C(=O)OC(C)(C)C)CC1)n1cc(-c2cn([C@@H](C)C(=O)N3CCN(C(=O)OC(C)(C)C)CC3)nn2)nn1`, the inhibition by setting is: (EGFP decrease, at 10 µM) 38.2%; (at 20 µM) 25.3% (inactive).

`NNC(=O)c1ccc(-c2cccc([N+](=O)[O-])c2)o1`: the inhibition by setting is: (EGFP decrease, at 10 µM) 4.6%; (at 20 µM) 9.1% (inactive).

In the case of `CCCCC(=O)NNC(=S)NC(=O)CCC`, the inhibition is, setting by setting: (EGFP decrease, at 10 µM) 8.3%; (at 20 µM) 15.7% (inactive).

In the case of `CC(Oc1ccc(F)cc1)C(=O)/C=C\N(C)C` (stereo not drawn), the inhibition runs as follows: (EGFP decrease, at 10 µM) 8.4%; (at 20 µM) 0% (inactive).

On to `CC(C)Cc1ccc(C(C)C(N)=NCCc2ccccc2)cc1` (stereo not drawn), for which the inhibition reads like this: (EGFP decrease, at 10 µM) -6.4%; (at 20 µM) -4.2% (inactive).

As for `CCN1CCN(Cc2ccc(NC(=O)c3cc(NC(=O)c4cncc(-c5ccc(C#N)cc5)c4)cc(OC)c3)cc2C(F)(F)F)CC1`, the inhibition is, setting by setting: (EGFP decrease, at 10 µM) 3%; (at 20 µM) 11.7% (inactive).

With `CC(=O)c1cccc(OCc2cc(C(=O)N3CC4C[C@@H]5CC3C[C@H](C4)C5)no2)c1`, the inhibition by setting is: (EGFP decrease, at 10 µM) 37.1%; (at 20 µM) 27% (inactive).

Consider `Cc1ccc(NC2=NC3(CCCCC3)N=C(N)N2)c(C)c1`, for which the inhibition (EGFP decrease, at 10 µM) was 32.9% and the inhibition (at 20 µM) was 41.8%.

For `C=CCCC(=O)N1CCCC(C(=O)c2cccc(OC)c2)C1` (stereo not drawn), the inhibition reads like this: (EGFP decrease, at 10 µM) 20.8%; (at 20 µM) 2.3% (inactive).

`C(=N\NC1=Nc2cccc3cccc1c23)/c1ccccn1`: the inhibition runs as follows: (EGFP decrease, at 10 µM) 10.2%; (at 20 µM) 12% (inactive).

For the molecule `CC(CN1CCOCC1)OC(=O)C(C)(c1ccccc1)c1ccccc1` (stereo not drawn), the inhibition (EGFP decrease, at 10 µM) was -14.9% and the inhibition (at 20 µM) is -4.6% (inactive).

Turning to `CCOCCc1nnc(NC(=O)CS(=O)(=O)Cc2ccccc2)s1`, the inhibition reads like this: (EGFP decrease, at 10 µM) 12%; (at 20 µM) 6% (inactive).

On to `CC(C)(C)NC(=O)c1ccc2c(c1)N(CC(=O)N1CCN(c3ccc(F)cc3)CC1)C(=O)C(C)(C)O2`, for which the inhibition (EGFP decrease, at 10 µM) worked out at 8.7% and the inhibition (at 20 µM) was 12.7% (inactive).

For `O=C(Nc1ccc(F)cc1)Nc1nnc(-c2ccco2)s1`, the inhibition is 12% (EGFP decrease, at 10 µM) and -2.8% (inactive) (at 20 µM).

In the case of `O=C(CS(=O)CC(=O)Nc1ccccc1-c1ccccc1)Nc1ccc(F)cc1` (stereo not drawn), the inhibition was -0.9% (EGFP decrease, at 10 µM) and 13.9% (inactive) (at 20 µM).

In the case of `C[C@H](NC(=O)OCc1ccccc1)c1nnc([C@H](C)NC(=O)OCc2ccccc2)o1`, the inhibition is, setting by setting: (EGFP decrease, at 10 µM) -3.8%; (at 20 µM) -5.1% (inactive).

For `CCC1=C2CC[C@H]3C(=O)N(C)C(=O)[C@H]3[C@H]2[C@@]2(Cc3ccccc3)C(=NCCOC)OC(=O)N2C1=O`, the inhibition was -6.2% (EGFP decrease, at 10 µM) and 13.4% (inactive) (at 20 µM).
